From patent US20230184744A1, “INTERTUMORAL HOMOGENEITY DETERMINED BY MiCK ASSAY” (Pierian Biosciences, LLC, priority 2014, published 2023)
Numbered stars: 1 amine (or outer) side, 2 acyl side, 3 side chain; on linkers, the order of the positions; unused ones are H or OH. Bridge positions count the residues as written; N and C are the ends. Square brackets hold non-standard residues; d marks the D form. Peptide text beside a SMILES is read from it. I, II: the chains in the order shown. Actinocin(9to1) = Cc1c2oc3c(C)ccc(C(=O)[*:1])c3nc-2c(C(=O)[*:2])c(N)c1=O; NMeV = CN[C@H](C(=O)O)C(C)C; Sar = CNCC(=O)O

Columns and labels:
[1] = tested on: Pancreatic islet cell cancer (lymph node); assay: MiCK assay, drug-induced apoptosis, Table 4 tumor A1; settings: Table 4 tumor A1: Pancreatic islet cell cancer (lymph node); 48 hours with drug
Method: (§3) After overnight incubation, chemotherapy drugs were added to the wells of the 96-well plate in 5 μL aliquots or to the wells of a 384-well plate in 2.5 μL aliquots using an automated pipettor. The number of drugs or drug combinations and the number of concentrations tested depended on the number of viable malignant cells that were isolated from the tumor specimen. The drug concentrations, determined by molarity, were those indicated by the manufacturer as the desired blood level concentration plus or minus one serial dilution if enough cells were available.
(§4) Following drug addition, the plate was incubated for 30 min. at 37° C. in a 5% carbon dioxide humidified atmosphere incubator. Each well was then overlayed with sterile mineral oil, and the plate was placed into the incubator chamber of a microplate spectrophotometric reader. The optical density at 600 nanometers was read and recorded every 5 minutes over a period of 48 hours.
(§5) Patients: Three patients were included in this study. Two tumor samples from different tumor sites were collected from each patient. Both samples from each patient were collected on the same day.

[2] = tested on: Pancreatic islet cell cancer (primary tumor); assay: MiCK assay, drug-induced apoptosis, Table 4 tumor A2; settings: 48 hours with drug
Method: as §3
(§6) Following drug addition, the plate was incubated for 30 min. at 37° C. in a 5% carbon dioxide humidified atmosphere incubator. Each well was then overlayed with sterile mineral oil, and the plate was placed into the incubator chamber of a microplate spectrophotometric reader. The optical density at 600 nanometers was read and recorded every 5 minutes over a period of 48 hours. Optical density increases, which correlates with apoptosis, were converted to kinetic units (KU) of apoptosis by a proprietary software ProApo with a formula described in the Kravtsov reference incorporated by reference (i.e. Kravtsov V. et al. “Use of the Microculture Kinetic Assay of apoptosis to determine chemosensitivities of leukemias.” Blood 1998; 92:968-980).
(§7) Purified tumor cells were cultured for 48 hours with individual drugs, and drug-induced apoptosis was measured using the MiCK assay as described in Example 1. Data were obtained optically using Mie light-scattering.

[3] = tested on: Lung adenocarcinoma (pleural effusion); assay: MiCK assay, drug-induced apoptosis, Table 4 tumor B1; assay type: cell-based, human; settings: Table 4 tumor B1: Lung adenocarcinoma (pleural effusion); 48 hours with drug
Text: (§1) Data were obtained optically using Mie light-scattering.
Patients: Three patients were included in this study. […] Patient A was diagnosed with pancreatic islet cell cancer; sample 1 was collected from lymph node and sample 2 was collected from the primary tumor. Patient B was diagnosed with lung cancer NSCLC adenocarcinoma; sample 1 was collected from pleural effusion and sample 2 was collected from solid tumor. […] Ages of the patients ranged from 51-79 years old with an average age of 65 years. One patient was […] and two were female.

[4] = tested on: Lung small cell carcinoma (site A); assay: MiCK assay, drug-induced apoptosis, Table 4 tumor C1; settings: Table 4 tumor C1: Lung small cell carcinoma (site A); 48 hours with drug
Method: as §3, §4, §5

[5] = tested on: Probable mesothelioma (pleural effusion); assay: MiCK assay, drug-induced apoptosis, Table 3 tumor A2; assay type: cell-based, human; settings: Table 3 tumor A2: Probable mesothelioma (pleural effusion); 48 hours with drug
Method: as §1
When the optimal cell concentration is reached, put the cells in the plate and incubate overnight in the incubating chamber of the incubator (37° C.).

[6] = tested on: NSCLC, bilateral well-differentiated adenocarcinoma (site 1A); assay: MiCK assay, drug-induced apoptosis, Table 3 tumor B1; assay type: cell-based, human; settings: Table 3 tumor B1: NSCLC, bilateral well-differentiated adenocarcinoma (site 1A); 48 hours with drug
Text: as §1
(§2) Do a test well. […] Look at the well under the inverted microscope. […] Repeat until optimal cell concentration is found. Plate the cells into the wells.

[7] = tested on: NSCLC, bilateral well-differentiated adenocarcinoma (site 1B); assay: MiCK assay, drug-induced apoptosis, Table 3 tumor B2; assay type: cell-based, human; settings: Table 3 tumor B2: NSCLC, bilateral well-differentiated adenocarcinoma (site 1B); 48 hours with drug
Text: as §1, §2

[8] = tested on: NSCLC, multi-focal, recurrent adenocarcinoma (site A); assay: MiCK assay, drug-induced apoptosis, Table 3 tumor C1; assay type: cell-based, human; settings: Table 3 tumor C1: NSCLC, multi-focal, recurrent adenocarcinoma (site A); 48 hours with drug
Text: as §1, §2

[9] = tested on: NSCLC, multi-focal, recurrent adenocarcinoma (right lung); assay: MiCK assay, drug-induced apoptosis, Table 3 tumor D1; assay type: cell-based, human; settings: Table 3 tumor D1: NSCLC, multi-focal, recurrent adenocarcinoma (right lung); 48 hours with drug
Text: as §1, §2

[10] = tested on: NSCLC, multi-focal, recurrent adenocarcinoma (lymph node); assay: MiCK assay, drug-induced apoptosis, Table 3 tumor D2; assay type: cell-based, human; settings: Table 3 tumor D2: NSCLC, multi-focal, recurrent adenocarcinoma (lymph node); 48 hours with drug
Text: as §1, §2

[11] = tested on: Lung adenocarcinoma (site B); assay: MiCK assay, drug-induced apoptosis, Table 4 tumor C2; settings: Table 4 tumor C2: Lung adenocarcinoma (site B); 48 hours with drug
Method: as §3, §6, §7

[12] = tested on: NSCLC, multi-focal adenocarcinoma (site A); assay: MiCK assay, drug-induced apoptosis, Table 3 tumor E1; assay type: cell-based, human; settings: Table 3 tumor E1: NSCLC, multi-focal adenocarcinoma (site A); 48 hours with drug
Text: as §1, §2

Row | Compound | kinetic units (KU) of apoptosis [1] | kinetic units (KU) of apoptosis [4] | kinetic units (KU) of apoptosis [5] | kinetic units (KU) of apoptosis [6] | kinetic units (KU) of apoptosis [7] | also measured
1 | Nc1nc(Cl)nc2c1ncn2[C@H]1C[C@H](O)[C@@H](CO)O1 [Cladribine] | 0.61 KU |  |  |  |  | 
2 | Cn1nnc2c(C(N)=O)ncn2c1=O [Temozolomide] | 0.62 KU |  |  |  |  | kinetic units (KU) of apoptosis [2]: 1.22 KU
3 | Nc1ncn([C@@H]2O[C@H](CO)[C@@H](O)[C@H]2O)c(=O)n1 [Vidaza] | 1.00 KU |  |  |  |  | 
4 | Cn1c(CCCC(=O)O)nc2cc(N(CCCl)CCCl)ccc21 [Bendamustine] | 1.39 KU |  |  |  |  | 
5 | O=C1c2c(O)ccc(O)c2C(=O)c2c(NCCNCCO)ccc(NCCNCCO)c21 [Mitoxantrone] | 0.82 KU | 1.60 KU |  |  |  | kinetic units (KU) of apoptosis [3]: 2.30 KU
6 | COc1cccc2c1C(=O)c1c(O)c3c(c(O)c1C2=O)C[C@@](O)(C(C)=O)C[C@@H]3O[C@H]1C[C@H](N)[C@H](O)[C@H](C)O1 [Daunorubicin] |  | 8.10 KU | 3.80 KU | 1.40 KU | 1.40 KU | 
7 | Cc1ccc(NC(=O)c2ccc(CN3CCN(C)CC3)cc2)cc1Nc1nccc(-c2cccnc2)n1 [Gleevec, imatinib] | 0.39 KU | 0.00 KU |  |  |  | 
8 | C/C(=C\c1csc(C)n1)[C@@H]1C[C@@H]2O[C@]2(C)CCC[C@H](C)[C@H](O)[C@@H](C)C(=O)C(C)(C)[C@@H](O)CC(=O)N1 [Ixabepilone] | 1.00 KU |  |  |  |  | 
9 | Nc1nc2[nH]cc(CCc3ccc(C(=O)N[C@@H](CCC(=O)O)C(=O)O)cc3)c2c(=O)[nH]1 [Alimta, Pemetrexed] | 0.22 KU | 1.40 KU | 1.20 KU | 1.40 KU | 1.60 KU | kinetic units (KU) of apoptosis [8]: 0.80 KU; kinetic units (KU) of apoptosis [9]: 0.70 KU; kinetic units (KU) of apoptosis [10]: 0.60 KU; kinetic units (KU) of apoptosis [11]: 0.70 KU
10 | CCN(CC)CCNC(=O)c1c(C)[nH]c(/C=C2\C(=O)Nc3ccc(F)cc32)c1C [Sunitinib] | 1.93 KU |  |  |  |  | kinetic units (KU) of apoptosis [3]: 0.70 KU; kinetic units (KU) of apoptosis [2]: 2.06 KU
11 | CN(C)/N=N/c1[nH]cnc1C(N)=O [Dacarbazine] | 1.31 KU |  |  |  |  | kinetic units (KU) of apoptosis [2]: 0.00 KU
12 | CC[C@]1(O)C[C@@H]2CN(CCc3c([nH]c4ccccc34)[C@@](C(=O)OC)(c3cc4c(cc3OC)N(C)[C@H]3[C@@](O)(C(=O)OC)[C@H](OC(C)=O)[C@]5(CC)C=CCN6CC[C@]43[C@@H]65)C2)C1 [Vinblastine] | 1.00 KU | 3.10 KU |  |  |  | kinetic units (KU) of apoptosis [11]: 2.00 KU
13 | CCCCCOC(=O)Nc1nc(=O)n([C@@H]2O[C@H](C)[C@@H](O)[C@H]2O)cc1F [Xeloda] | 0.42 KU |  |  |  |  | kinetic units (KU) of apoptosis [2]: 0.90 KU
14 | Cc1c2oc3c(C)ccc(C(=O)N[C@@H]4C(=O)N[C@H](C(C)C)C(=O)N5CCC[C@H]5C(=O)N(C)CC(=O)N(C)[C@@H](C(C)C)C(=O)O[C@@H]4C)c3nc-2c(C(=O)N[C@@H]2C(=O)N[C@H](C(C)C)C(=O)N3CCC[C@H]3C(=O)N(C)CC(=O)N(C)[C@@H](C(C)C)C(=O)O[C@@H]2C)c(N)c1=O [Dactinomycin] (I: T[dV]P[Sar][NMeV] / II: T[dV]P[Sar][NMeV]; ester I:1-I:C, II:1-II:C; linker I:N-II:N via Actinocin(9to1)) |  | 7.70 KU | 4.70 KU | 1.20 KU | 0.90 KU | kinetic units (KU) of apoptosis [9]: 0.90 KU; kinetic units (KU) of apoptosis [3]: 2.70 KU; kinetic units (KU) of apoptosis [11]: 3.00 KU
15 | CN(N=O)C(=O)N[C@@H](C=O)[C@@H](O)[C@H](O)[C@H](O)CO [Streptozocin] | 0.23 KU |  |  |  |  | kinetic units (KU) of apoptosis [2]: 0.0 KU
16 | CO[C@H]1C[C@@H]2CC[C@@H](C)[C@@](O)(O2)C(=O)C(=O)N2CCCC[C@H]2C(=O)O[C@H]([C@H](C)C[C@@H]2CC[C@@H](OCCO)[C@H](OC)C2)CC(=O)[C@H](C)/C=C(\C)[C@@H](O)[C@@H](OC)C(=O)[C@H](C)C[C@H](C)/C=C/C=C/C=C/1C [Everolimus] | 1.31 KU | 0.50 KU |  |  |  | kinetic units (KU) of apoptosis [2]: 0.00 KU; kinetic units (KU) of apoptosis [11]: 1.00 KU
17 | CC(=O)[C@]1(O)Cc2c(O)c3c(c(O)c2[C@@H](O[C@H]2C[C@H](N)[C@H](O)[C@H](C)O2)C1)C(=O)c1ccccc1C3=O [Idarubicin] | 1.22 KU | 8.00 KU | 4.00 KU | 1.20 KU | 1.10 KU | kinetic units (KU) of apoptosis [8]: 0.90 KU; kinetic units (KU) of apoptosis [9]: 1.30 KU; kinetic units (KU) of apoptosis [11]: 3.00 KU
18 | O=NN(CCCl)C(=O)NCCCl [Carmustine] | 0.82 KU | 3.00 KU |  |  |  | kinetic units (KU) of apoptosis [3]: 1.20 KU; kinetic units (KU) of apoptosis [11]: 0.50 KU
19 | O=c1[nH]cc(F)c(=O)[nH]1 [5FU, 5-Fluorouracil] | 0.42 KU |  |  |  |  | 
20 | Bleomycin |  |  | 1.00 KU | 1.90 KU | 1.30 KU | 
21 | O=NN(CCCl)C(=O)NC1CCCCC1 [CCNU] | 1.00 KU | 0.90 KU |  |  |  | 
22 | O=P1(NCCCl)OCCCN1CCCl (centres unmarked) [4HI (Ifosfamide), Ifosfamide] | 3.01 KU | 1.50 KU | 3.40 KU | 2.70 KU | 0.70 KU | kinetic units (KU) of apoptosis [8]: 0.50 KU; kinetic units (KU) of apoptosis [10]: 1.20 KU; kinetic units (KU) of apoptosis [12]: 0.10 KU; kinetic units (KU) of apoptosis [3]: 2.40 KU
23 | CC(C)C[C@H](NC(=O)[C@H](Cc1ccccc1)NC(=O)c1cnccn1)B(O)O [Velcade, Bortezomib] | 0.79 KU | 1.60 KU | 1.10 KU | 2.00 KU | 2.00 KU | kinetic units (KU) of apoptosis [8]: 0.20 KU; kinetic units (KU) of apoptosis [9]: 0.60 KU; kinetic units (KU) of apoptosis [3]: 3.40 KU; kinetic units (KU) of apoptosis [11]: 1.80 KU
24 | CNC(=O)c1cc(Oc2ccc(NC(=O)Nc3ccc(Cl)c(C(F)(F)F)c3)cc2)ccn1 [Sorafenib] | 1.57 KU |  |  |  |  | 
25 | CO[C@@]12[C@H](COC(N)=O)C3=C(C(=O)C(C)=C(N)C3=O)N1C[C@@H]1N[C@@H]12 [Mitomycin] | 1.04 KU | 6.30 KU | 1.00 KU | 1.20 KU | 1.00 KU | kinetic units (KU) of apoptosis [8]: 0.00 KU; kinetic units (KU) of apoptosis [9]: 0.60 KU; kinetic units (KU) of apoptosis [3]: 0.90 KU
26 | N[C@@H](Cc1ccc(N(CCCl)CCCl)cc1)C(=O)O [Melphalan] | 0.57 KU |  |  |  |  | kinetic units (KU) of apoptosis [3]: 3.10 KU
27 | C#Cc1cccc(Nc2ncnc3cc(OCCOC)c(OCCOC)cc23)c1 [Tarceva] | 0.66 KU | 0.00 KU | 0.80 KU | 0.60 KU | 0.60 KU | kinetic units (KU) of apoptosis [9]: 0.5 KU; kinetic units (KU) of apoptosis [11]: 0.70 KU
